From ChEMBL document CHEMBL4706648, “Antitubercular 2-Pyrazolylpyrimidinones: Structure-Activity Relationship and Mode-of-Action Studies” (J Med Chem, 2021) come the findings set out here.

In brackets after ≈: the same amount, converted by molar mass.

The first assay concerns Mycobacterium tuberculosis. It is filed as functional, H37Rv. The following applies: time 7-14 day.
Take `Cc1cc(C)n(-c2nc(O)cc(-c3ccccc3)n2)n1`: the MIC is 18 µM (≈ 4.79 µg/mL).

Turning to `COCCNc1cc(C)nn1-c1nc(C(F)(F)F)cc(=O)[nH]1`, the MIC is 39 µM (≈ 12.4 µg/mL).

`CCNc1cc(C)nn1-c1nc(-c2cccnc2)cc(=O)[nH]1` registered a minimal inhibitory concentration (MIC) of 41 µM (≈ 12.1 µg/mL).

Compound `Cc1cc(C)n(-c2nc(C(F)(F)F)cc(=O)[nH]2)n1` returned a minimum inhibitory concentration (MIC) of 170 µM (≈ 43.9 µg/mL).

Consider `Cc1ccc(Nc2cc(C)nn2-c2nc(C)cc(O)n2)cc1`, for which the MIC was 55 µM (≈ 16.2 µg/mL).

For the next assay, the system named is Mycobacterium tuberculosis. It is filed as functional, H37Rv. The following applies: time 7-14 day. The source holds these as a separate data set.
`Cc1cc(C)n(-c2nc(O)cc(-c3ccccc3)n2)n1` came in with an MIC of 40 µM (≈ 10.7 µg/mL).

On to `Cc1ccc(Nc2cc(C)nn2-c2nc(C)cc(O)n2)cc1`, for which the MIC worked out at 110 µM (≈ 32.5 µg/mL).

A further assay has as its system Mycobacterium tuberculosis. It is filed as functional, H37Rv. The conditions noted are these: time 7-14 day. The source holds these as a separate data set.
Consider `Cc1cc(C)n(-c2nc(O)cc(-c3ccccc3)n2)n1`, for which the MIC turned out to be 1.9 µM (≈ 0.506 µg/mL).

In turn, `CC(=O)Nc1cc(C)nn1-c1nc(-c2ccccc2)cc(=O)[nH]1` gave an MIC of 24 µM (≈ 7.42 µg/mL).

`COCCNc1cc(C)nn1-c1nc(C(F)(F)F)cc(=O)[nH]1` registered an MIC of 1.9 µM (≈ 0.603 µg/mL).

Take `Cc1cc(Nc2ccc(F)cc2)n(-c2nc(C(F)(F)F)cc(=O)[nH]2)n1`: the MIC stood at 1 µM (≈ 0.353 µg/mL).

In the case of `CCNc1cc(C)nn1-c1nc(-c2cccnc2)cc(=O)[nH]1`, the MIC was 5.5 µM (≈ 1.63 µg/mL).

In turn, `Cc1cc(C)n(-c2nc(C(F)(F)F)cc(=O)[nH]2)n1` gave an MIC of 17 µM (≈ 4.39 µg/mL).

As to `Cc1ccc(Nc2cc(C)nn2-c2nc(C)cc(O)n2)cc1`, the minimum inhibitory concentration (MIC) came out at 5.4 µM (≈ 1.59 µg/mL).

For the next assay, the system named is Mycobacterium tuberculosis. It is filed as functional, H37Rv. The conditions noted are these: time 7-14 day. The source holds these as a separate data set.
In turn, `Cc1cc(C)n(-c2nc(O)cc(-c3ccccc3)n2)n1` showed an MIC of 16 µM (≈ 4.26 µg/mL).

The compound `Cc1ccc(Nc2cc(C)nn2-c2nc(C)cc(O)n2)cc1` returned an MIC of 45 µM (≈ 13.3 µg/mL).
